We go through two compounds from patent US20080026003A1, “Methods for inhibiting pain” (The General Hospital Corporation, priority 2000, published 2008).

Experiment [1] deals with CFA-induced inflammatory pain in rats. An excerpt: For these studies, animals were habituated to the testing environment daily for two days before baseline testing. Except for the heat test, all the animals were placed on an elevated wire grid. For mechanical allodynia, the plantar surface of the hindpaw was stimulated with a series of von Frey hairs. The threshold was taken as the lowest force that evoked a brisk withdrawal response. For heat hyperalgesia, the plantar surface of a hindpaw was exposed to a beam of radiant heat through a transparent Perspex surface (Hargreaves et al., Pain 32:77-88, 1988). The withdrawal latency was recorded, with a maximum 15 seconds as cutoff. The withdrawal latency was averaged over three trials.
To examine the functional consequences of ERK activation and its downstream effects on prodynorphin and NK-1 upregulation, we determined whether inhibition of ERK activation modified inflammatory pain hypersensitivity.
ERK activation by CFA may contribute to inflammatory pain hypersensitivity either by maintaining ongoing post-translational changes or by inducing transcription of genes such as NK1 and prodynorphin. In the former case, blocking ERK activation in established inflammation would be expected to reduce the pain hypersensitivity within tens of minutes due to dephosphorylation of ERK substrates. If the contribution of ERK activation were through transcription, inhibiting ERK activation would be expected to have no immediate effect, but have a delayed effect. To distinguish between these two possible mechanisms, U0126 was intrathecally injected (1 μg) into rats with established inflammation (24 hours after CFA injection) and tested pain hypersensitivity 30 minutes, 6 hours, and 24 hours after the injection of U0126.

The next experiment deals with NK-1. Particulars: 1 μg intrathecal 30 minutes before and 6 hours after CFA; 24 hours.
The test system of a further experiment is prodynorphin mRNA. The note with it: 2×1 μg intrathecal; 24 hours after CFA.
A further experiment concerns p38 and ERK. Briefly: MAP kinase phosphorylation in primary DRG neuron cultures. The class given is cell-based, rat. Particulars: 10 ng/ml; 30 minutes. The procedure: To investigate the intracellular signaling pathway that leads to the increase in Cox-2 mRNA in the DRG neurons following treatment with IL-1β, the activation of the NFκ-B transcription factor and members of the MAP kinase family in primary DRG neurons was studied. […] Phosphorylated p38 and ERK were visualized by standard Western blot analysis and immunohistochemistry 30 minutes after administration of 10 ng/ml IL-1β to the culture medium (FIG. 12).
After CFA-induced inflammation, NGF is produced in the inflamed paw tissue and is retrogradely transported to the cell body of DRG neurons. NGF is critical for gene expression in DRG neurons and plays a major role in inflammatory pain (Lindsay et al., Nature 337: 362-364, 1989; and Woolf et al., Neuroscience 62:327-331, 1994). […] To determine whether NGF is required for the inflammation-induced activation of p38 and upregulation of VR1, NGF antiserum (i.p., 5 μl/g body weight, 84 mg/ml) was injected to neutralize endogenous NGF. […] Intrathecal injection of NGF (2 μg in 10 μl, twice a day for three days, Boeringer) increased both p-p38 levels and VR1 levels in DRG neurons. […] To test whether NGF acts via p38 to upregulate VR1, the p38 inhibitor SB203580 (1 μg) was co-administrated with NGF (twice a day for three days).

Experiment [2] relates to Cox-2 mRNA. Briefly: Cox-2 mRNA in spinal cord and DRG after IL-1β administration in vivo. The arrangement: species or system rat. The note with it: for upregulation of Cox-2 mRNA in the spinal cord: five hours later. How it is done: (§1) To determine whether IL-1β induces central Cox-2, rats were subjected to intravenous or intrathecal administration of this cytokine, and Cox-2 mRNA levels in the lumbar spinal cord were assessed five hours later. […] IL-1β also induces Cox-2 expression in dorsal root ganglion neurons (“DRG”), which are primary sensory neurons, both in vivo after intrathecal IL-1β administration and in vitro in primary neuronal cultures. […] For this analysis, Cox-2 mRNA levels were monitored using an RNase protection assay, and protein expression was visualized by immunohistochemistry, as described herein (FIG. 10).

The subject of another experiment is PGE2. Briefly: Central PGE2 levels after intrathecal IL-1β. The class given is in vivo, rat. The note with it: intrathecal 5 ng. The procedure: To visualize the induction of Cox-2 protein in dorsal horns after peripheral inflammation, immunohistochemistry was performed on transverse spinal cord sections (20 μm) using a Cox-2 antibody (Santa Cruz) and a neuronal marker, the NeuN antibody (Chemicon), as described previously (Amay et al., Mol. Cell Neurosci. 15:331-342, 2000). In situ hybridization was performed using a digoxygenin-labeled riboprobe to visualize the induction of Cox-2 mRNA (Mannion et al., Proc. Natl. Acad. Sci. U. S. A. 96:9385, 1999). Low basal levels of Cox-2 mRNA and protein were present in dorsal horn neurons with a substantial upregulation six and 12 hours post-inflammation (FIGS. 2A-2D and 3). To determine whether this induction of Cox-2 was correlated with an increase in PGE2 levels, a 100-200 μl sample of cerebrospinal fluid was withdrawn from the cisterna magna of anaesthetized rats using a 27 G needle, and PGE2 levels were analyzed using a PGE2 enzyme-immunoassay according to the manufacturer's protocol (Amersham Pharmacia Biotech). […]
To determine whether IL-1β induces central Cox-2, rats were subjected to intravenous or intrathecal administration of this cytokine, and Cox-2 mRNA levels in the lumbar spinal cord were assessed five hours later. […]

In experiment [3] the test system is Cox-2 mRNA. Briefly: Cox-2 mRNA induction by IL-1β in primary DRG neuron cultures. The class given is cell-based, rat. Particulars: 1 or 10 ng/ml. The procedure:
as §1
To measure the contribution of p38, ERK, and NFκ-B to IL-1β-mediated induction of Cox-2 mRNA and protein levels, specific inhibitors for each of these factors were used. p38 and ERK inhibitors each decreased the induction by IL-1β of Cox-2 mRNA in the primary DRG neuron cultures by 30% (FIG. 10).

For experiment [4], the system named is Cox-2 mRNA. As to the kind of experiment: Cox-2 mRNA in isolated spinal cord slice in vitro. The note with it: 10 ng/ml; after three hours. The class given is cell-based, rat. How it is done:
Two mechanisms may contribute to central Cox-2 induction in response to peripheral inflammation: 1) sensory inflow from nerve fibers innervating the inflamed hindpaw or 2) circulating pro-inflammatory cytokines. To determine whether primary sensory neuron activity increases central Cox-2, an isolated adult rat spinal cord slice preparation with an attached dorsal root was analyzed (FIG. 5A). To prepare this spinal cord slice, the lumbar spinal cord from an adult rat under urethane anesthesia was removed and immersed in cold Kreb's solution. A 700-μm-thick transverse slice with attached L4 dorsal root (15-20 mm) was prepared and perfused with Kreb's solution saturated with 95% O2 and 5% CO2 at 36-37° C. (Baba et al., J Neurosci 19:859, 1999). The L4 dorsal root was electrically stimulated for 30 minutes using a suction electrode at 20 μA (0.05 ms, 50 Hz) for Aβ-fibers, 100 μA (0.05 ms, 50 Hz) for […] 1000 μA (0.5 ms, 50 Hz) for C-fibers. The slices were perfused with Kreb's solution for two hours before electrical stimulation, and for three hours after stimulation.

Setting [5] is: non-inflamed animals, 1 μg intrathecal, 30 minutes after administration.

Experimental for NK-1: The data are represented as mean+SEM.
To explore whether ERK activation is involved in NK-1 upregulation, the MEK inhibitor U0126 was delivered intrathecally before the induction of inflammation via an osmotic pump (0.5 μg/ul/hr for 2 days). In particular, an Alzet osmotic pump (three days pump, 1 μl/hr) was filled with the MEK-inhibitor U0126 (0.5 μg/μl) in 50% DMSO, and the catheter of the pump implanted intrathecally at least three hours before CFA injection. DMSO (50%) was used as vehicle control.
Text for prodynorphin mRNA: To investigate changes in the expression of prodynorphin in response to inflammation, an RNase protection assay, in situ hybridization, and immunohistochemistry were used. […] Differences between groups were compared using student the t-test or ANOVA, followed by Fisher's PLSD. For non-parametric data, the Mann-Whittney U test was applied.
For the in situ hybridization analysis, animals were rapidly sacrificed in a CO2 chamber, and L4-L5 spinal cord segments were removed and cut on a cryostat at a thickness of 20 μm. […] An antinsense RNA probe, and the corresponding sense control probe, were labeled by in vitro transcription using linearized DNA templates for prodynorphin and dig labeling mixture for two hours at 37° C. […] Tissue Sections were air dried for two hours, fixed in 4% paraformaldehyde for 15 minutes, and acetylated in acetic anhydride (0.25%) for 10 minutes. Sections were pre-hybridized for two hours at room temperature, then incubated in hybridization buffer overnight at 60° C. […] Eight non-adjacent sections from the L4-L5 lumbar spinal cord were randomly selected, and the numbers of mRNA-positive neuronal profiles in the superficial laminae and/or deep laminae of the dorsal horn in each section were counted (under a 20× object field) by an observer blind to the treatment. […]

Regarding `N#CC(=C(/N)Sc1ccccc1N)/C(C#N)=C(\N)Sc1ccccc1N` [U0126], the “heat hyperalgesia and mechanical allodynia” value in experiment [1] (1 μg intrathecal 24 hours after CFA, tested at 30 minutes) is “Neither heat hyperalgesia nor mechanical allodynia was significantly affected”. For the same compound, in experiment [1] (1 μg intrathecal 24 hours after CFA, tested at 6 hours), the mechanical allodynia entry is given as “decreased”. Also, the heat hyperalgesia result in experiment [1] (1 μg intrathecal 24 hours after CFA, tested at 24 hours) is on record as “decreased”. Further, in experiment [1] (setting [5]), the heat withdrawal latency is 113 % of vehicle control and the mechanical withdrawal threshold is reported as 108 % of the vehicle control. Also, the “CFA-induced NK-1 increase in the dorsal horn (Western blot)” value with NK-1 is “inhibited”. For the same compound, the “number of prodynorphin mRNA labeled neurons in the deep laminae” value in the experiment on prodynorphin mRNA is “without affecting”.
Consider “IL-1β: cytokine administered intravenously, intrathecally or to cultures”, for which the “phosphorylation of p38 and ERK in DRG cell cultures” value with p38 and ERK was “lead to phosphorylation of p38 and ERK”. Moreover, the figures for the “upregulation of Cox-2 mRNA in the spinal cord” value in the experiment with Cox-2 mRNA [2] (intrathecal 5 ng), with Cox-2 mRNA [2] (intrathecal 50 ng) and with Cox-2 mRNA [2] (intravenous 1 μg) were 20 fold, 30 fold and “four”, respectively. In addition, in the experiment with Cox-2 mRNA [2] (intrathecal 1 and 10 ng, four hours after treatment), the “Cox-2 mRNA levels in rat lumbar DRG neurons” value is “substantially upregulated”. In addition, in the experiment with PGE2, the “upregulation of central PGE2 levels” value is listed as 50 fold. The “central PGE2 levels” value in the experiment with PGE2 (p<0.005, n=6) was determined as 1204 ± 360 pg/mL. Moreover, in the experiment on Cox-2 mRNA [3], the “Cox-2 mRNA and protein levels in cultured DRG neurons” value was “increased significantly”. Further, in the experiment with Cox-2 mRNA [4], the “Cox-2 mRNA expression in the spinal cord in vitro” value is on record as “increased”.
